Consider four molecules from ChEMBL document CHEMBL1145800, “QSAR and proteo-chemometric analysis of the interaction of a series of organic compounds with melanocortin receptor subtypes” (J Med Chem, 2003).

One may read the Ki as a dissociation constant, usually derived from enzyme kinetics or from competition with a known ligand.

One test addresses Melanocortin receptor 5 (Homo sapiens, UniProt P33032). The experiment in a line: Binding affinity towards Melanocortin 5 receptor, expressed as negative log of the Ki value.
The target of test [1] is Melanocyte-stimulating hormone receptor (Homo sapiens, UniProt Q01726). As to the kind of experiment: Binding affinity towards Melanocortin 1 receptor, expressed as negative log of the Ki value.
The next test concerns the target Melanocortin receptor 4 (Homo sapiens, UniProt P32245). As to the kind of experiment: Binding affinity towards Melanocortin 4 receptor, expressed as negative log of the Ki value.
The next test addresses Melanocortin receptor 3 (Homo sapiens, UniProt P41968). As to the kind of experiment: Binding affinity towards Melanocortin 3 receptor, expressed as negative log of the Ki value.

Sequence of Melanocortin receptor 4 (P32245 whole entry): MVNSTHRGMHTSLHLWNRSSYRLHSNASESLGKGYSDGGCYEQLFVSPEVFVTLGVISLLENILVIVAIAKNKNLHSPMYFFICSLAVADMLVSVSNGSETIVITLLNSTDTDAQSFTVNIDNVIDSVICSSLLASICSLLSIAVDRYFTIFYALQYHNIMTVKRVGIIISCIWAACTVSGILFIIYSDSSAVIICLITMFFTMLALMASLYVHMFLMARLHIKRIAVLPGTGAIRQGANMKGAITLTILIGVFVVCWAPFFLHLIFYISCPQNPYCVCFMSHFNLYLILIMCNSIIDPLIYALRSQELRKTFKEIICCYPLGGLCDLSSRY
Sequence of Melanocortin receptor 5 (P33032 whole entry): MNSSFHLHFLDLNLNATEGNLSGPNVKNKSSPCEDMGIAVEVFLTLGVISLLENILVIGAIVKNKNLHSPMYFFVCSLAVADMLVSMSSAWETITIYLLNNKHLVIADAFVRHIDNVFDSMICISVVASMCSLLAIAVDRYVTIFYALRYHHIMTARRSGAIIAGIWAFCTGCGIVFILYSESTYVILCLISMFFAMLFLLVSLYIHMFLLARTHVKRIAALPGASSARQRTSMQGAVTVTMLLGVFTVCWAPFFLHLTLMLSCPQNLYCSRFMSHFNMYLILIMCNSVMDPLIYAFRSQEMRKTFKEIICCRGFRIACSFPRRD
Sequence of Melanocyte-stimulating hormone receptor (Q01726 whole entry): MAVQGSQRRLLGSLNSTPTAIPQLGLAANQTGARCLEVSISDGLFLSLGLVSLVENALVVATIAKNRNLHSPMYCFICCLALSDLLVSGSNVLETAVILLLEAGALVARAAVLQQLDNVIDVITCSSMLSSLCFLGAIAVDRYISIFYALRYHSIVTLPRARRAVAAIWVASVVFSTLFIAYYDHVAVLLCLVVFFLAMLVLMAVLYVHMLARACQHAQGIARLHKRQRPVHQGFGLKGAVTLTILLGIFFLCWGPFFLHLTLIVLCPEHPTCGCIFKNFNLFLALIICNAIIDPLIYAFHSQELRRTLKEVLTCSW
Sequence of Melanocortin receptor 3 (P41968 whole entry): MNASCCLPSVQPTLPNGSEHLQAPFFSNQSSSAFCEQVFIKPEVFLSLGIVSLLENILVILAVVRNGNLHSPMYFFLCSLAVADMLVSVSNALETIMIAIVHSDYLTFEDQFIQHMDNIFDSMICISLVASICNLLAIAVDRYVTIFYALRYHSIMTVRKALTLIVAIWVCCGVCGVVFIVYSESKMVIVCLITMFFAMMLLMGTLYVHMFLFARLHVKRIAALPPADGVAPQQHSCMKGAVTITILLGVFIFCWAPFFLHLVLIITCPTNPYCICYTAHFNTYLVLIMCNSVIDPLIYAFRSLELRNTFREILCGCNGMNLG

For `NCCCCCC(=O)N(Cc1ccc2ccccc2c1)Cc1cccc2ccccc12`, the inhibition constant Ki at Melanocortin receptor 5 was 3.98 µM; in test [1], 1.58 µM; on Melanocortin receptor 4 it was 2 µM; on Melanocortin receptor 3 it was 31.6 µM.

As for `N=C(N)NCCCNC(=O)[C@H](CCCN=C(N)N)NCc1ccc2ccccc2c1`, the Ki at Melanocortin receptor 5 is 1000 µM; in test [1], 3.98 µM; on Melanocortin receptor 4, 31.6 µM; at Melanocortin receptor 3, 5.01 µM.

As to `NC(N)=NCCC[C@H](N)C(=O)N(Cc1ccc2ccccc2c1)Cc1cccc2ccccc12`, the inhibition constant (Ki) was 0.631 µM in test [1], 5.01 µM on Melanocortin receptor 4 and 7.94 µM on Melanocortin receptor 3.

On to `NCCCNC(=O)[C@H](CNCc1c[nH]c2ccccc12)NCc1ccc2ccccc2c1`, for which the Ki is 39.8 µM on Melanocortin receptor 5, 0.631 µM in test [1], 25.1 µM at Melanocortin receptor 4 and 50.1 µM at Melanocortin receptor 3.
